Converted amounts (≈) assume the structure as drawn. Like-named read-outs stand apart in the source and are kept apart here.
What was measured:
[1] = system: Enterobacteriaceae; assay: Non-clinical total-drug % T>RIC targets for efficacy
Excerpt: Emphasis was placed on the assessment of PK-PD target attainment results for AUC:MIC ratio and % T>RIC targets associated with net bacterial stasis.

[2] = Population PK analysis of ZTI-01, pooled Phase 1 healthy subjects and Phase 2/3 cUTI/AP patients; assay type: in vivo, human; details: for Baseline CLcr50 / Hill coefficient: CL model
Excerpt: Methods: Two clinical studies have been conducted as part of the development of ZTI-01: a Phase 1 study in healthy subjects (ZTI-01-NIH13-0064) and a Phase 2/3 study in hospitalized patients with complicated urinary tract infections (ZTI-01-200). A PPK model, originally developed using Phase 1 data and an empirical relationship between FOS clearance (CLt) and creatinine clearance (CLcr) [Microbe 2017 Abstr. P1134], was refined using pooled data from healthy subjects and patients with cUTI, including acute pyelonephritis.
The PPK model was developed in NONMEM 7.2. In the Phase 1 study, 28 healthy subjects who received ZTI-01 as single (1 and 8 g infused over 1 hour) IV doses in crossover fashion provided plasma and urine samples for FOS concentration determination over 24 hours. Patients from the Phase 2/3 study (ZEUS, NCT02753946) received ZTI-01 at 6 g every 8 hours, with dosage adjustment for patients with renal impairment (adjusted for CLcr≤50 mL/min). Blood samples for PK (n=5 per patient) were collected on Day 1 and on either Days 3, 4, or 5. Model development involved refinement of the previous CLt:CLcr relationship using the pooled data and a full covariate analysis to identify other patient descriptors associated with the interindividual variability (IIV) in FOS PK. Model qualification included standard goodness-of-fit metrics and visual predictive check plots.
For the PPK model refinement, previous structural population PK model was fit to the pooled Phase 1 and 2/3 data. Covariate analyses were conducted using forward selection and backward elimination. The final model was qualified using visual predictive checks and non-parametric bootstrap procedures. Individual, post-hoc fosfomycin exposures were calculated for each patient using predicted plasma fosfomycin concentration-time data for the first 48 hours of therapy.

[3] = Pharmacokinetics in specific populations (hemodialysis, hepatic, demographics); assay type: in vivo, human
[4] = system: Acinetobacter baumannii-calcoaceticus complex; assay: Case treated with the dosing regimen of the invention; assay type: in vivo; details: one case
Excerpt: In addition to the above list, it was also observed that the dosing regimen of the present invention provided beneficial results for two uncommon and rarely treated strains. In one case, the dosing regimen of the present invention was used to administer appropriate dosages of fosfomycin, resulting in the eradication of the often resistant, Gram negative Acinetobacter baumannii-calcoaceticus complex.

[5] = system: Raoultella ornithinolytica; assay: Case treated with the dosing scheme of the invention; assay type: in vivo; details: one case
[6] = system: Enterobacteriaceae; details: cited from earlier work; for Total-drug AUC:MIC ratio target: Enterobacteriaceae; for Median total-drug AUC:MIC ratio target: neutropenic murine-thigh infection model (Lepak et al.)
[7] = system: Enterobacteriaceae isolates; details: 1,021 Enterobacteriaceae isolates collected from US medical centers; cited from earlier work
[8] = system: acute pyelonephritis pathogens; details: Ode et al. study; dosing regimen 8 g bid; cited from earlier work
[9] = 1-log10 CFU reduction from baseline
[10] = final population PK model estimate

## C[C@@H]1O[C@@H]1P(=O)(O)O [fosfomycin]
[1]; [9]
  Total-drug % T > RIC target: 20.9%
[1]; 2-log10 CFU reduction from baseline
  Total-drug % T > RIC target: 32.8%
[1]; Net bacterial stasis
  Total-drug % T > RIC target: 11.9%
[2]; bootstrap mean (N = 200)
  Baseline CLcr50: 66.3 mL/min/1.73 m^2
  Hill coefficient: 2.6
  CLd1 Coefficient: 4.36 L/h
  CLd1 Proportional increase for AP and cUTI patients: 1.28
  CLd2 Coefficient: 0.351 L/h
  CLe maximum: 9.02 L/h
  Covariance between CL and Vc: 0.0707
  Covariance between CL and Vp1: 0.134
  Covariance between CLd1 and Vp1: 0.173
  Plasma Residual variability (σ^2) CCV component: 0.0196
  Urine Residual variability (σ^2) CCV component: 0.0793
  Vc Coefficient: 17.7 L
  Vc-BSA power: 1.72
  Vp1-BSA power: 2.73
  Vp1 Coefficient: 6.11 L
  Vp1 Proportional increase for AP and cUTI patients: 0.721
  Vp2 Coefficient: 1.74 L
  ω^2 for Vc: 0.174
  ω^2 for Vp1: 0.516
  ω^2 tor CLd1: 0.203
[2]; bootstrap median (N = 200)
  Baseline CLcr50: 65.6 mL/min/1.73 m^2
  Hill coefficient: 2.59
  CLd1 Coefficient: 4.2 L/h
  CLd1 Proportional increase for AP and cUTI patients: 1.15
  CLd2 Coefficient: 0.346 L/h
  CLe maximum: 8.87 L/h
  Covariance between CL and Vc: 0.0704
  Covariance between CL and Vp1: 0.131
  Covariance between CLd1 and Vp1: 0.166
  Plasma Residual variability (σ^2) CCV component: 0.0194
  Urine Residual variability (σ^2) CCV component: 0.079
  Vc Coefficient: 17.7 L
  Vc-BSA power: 1.7
  Vp1-BSA power: 2.73
  Vp1 Coefficient: 6.03 L
  Vp1 Proportional increase for AP and cUTI patients: 0.706
  Vp2 Coefficient: 1.72 L
  ω^2 for Vc: 0.172
  ω^2 for Vp1: 0.508
  ω^2 tor CLd1: 0.199
[2]; [10]
  Baseline CLcr50: 65 mL/min/1.73 m^2
  Hill coefficient: 2.56
  CLd1 Coefficient: 4.15 L/h
  CLd1 Proportional increase for AP and cUTI patients: 1.24
  CLd2 Coefficient: 0.349 L/h
  CLe maximum: 8.87 L/h
  Covariance between CL and Vc: 0.07213
  Covariance between CL and Vp1: 0.1296
  Covariance between CLd1 and Vp1: 0.1853
  Plasma Residual variability (σ^2) CCV component: 0.0195
  Urine Residual variability (σ^2) CCV component: 0.0795
  Vc Coefficient: 17.6 L
  Vc-BSA power: 1.76
  Vp1-BSA power: 2.72
  Vp1 Coefficient: 5.99 L
  Vp1 Proportional increase for AP and cUTI patients: 0.729
  Vp2 Coefficient: 1.73 L
  ω^2 for Vc: 0.175
  ω^2 for Vp1: 0.502
  ω^2 tor CLd1: 0.215
[2]; geometric mean, infected Phase 2/3 patients (n = 214), ZTI-01-200, population PK model fit
  Cmin: 30.0 µg/mL
[2]; human, in vivo, 6 g, geometric mean, infected Phase 2/3 patients (n = 214), ZTI-01-200, population PK model fit
  Cmax: 364 µg/mL
[2]; human, in vivo, 6 g, geometric mean, infected Phase 2/3 patients (n = 214), ZTI-01-200, population PK model fit, read-out: CL (converted)
  clearance: 99.7 mL/min
[2]; human, in vivo, 6 g, geometric mean, infected Phase 2/3 patients (n = 214), ZTI-01-200, population PK model fit, read-out: VSS
  Vd: 30.9 L
[2]; human, in vivo, 6 g, geometric mean, infected Phase 2/3 patients (n = 214), ZTI-01-200, population PK model fit, read-out: t1/2, α (converted)
  half-life: 0.402 h
[2]; human, in vivo, 6 g, geometric mean, infected Phase 2/3 patients (n = 214), ZTI-01-200, population PK model fit, read-out: t1/2, β (converted)
  half-life: 2.67 h
[2]; human, in vivo, 6 g, geometric mean, infected Phase 2/3 patients (n = 214), ZTI-01-200, population PK model fit, read-out: t1/2, γ (converted)
  half-life: 4.99 h
[2]; human, in vivo, 6 g, geometric mean, infected Phase 2/3 patients (n = 214), ZTI-01-200, doses by baseline renal function, population PK model fit, read-out: AUC0-24
  AUC(0-t): 2490 µg·h/mL
[2]; human, in vivo, bootstrap mean (N = 200), read-out: Non-renal CL (converted)
  clearance: 27 mL/min
[2]; human, in vivo, bootstrap median (N = 200), read-out: Non-renal CL (converted)
  clearance: 27.2 mL/min
[2]; human, in vivo, final population PK model estimate, read-out: Non-renal CL (converted)
  clearance: 26.8 mL/min
[3]; administered prior to hemodialysis in patients on periodic or chronic hemodialysis
  fosfomycin dose removed by hemodialysis: 61-79%
[3]; age 18 to 89 years, adjusted for renal function
  differences in pharmacokinetics based on sex, body weight/body surface area, race/ethnicity or age: No clinically significant differences
[3]; in vivo
  metabolism through the liver: not metabolized through the liver
[4]
  outcome against Acinetobacter baumannii-calcoaceticus complex: eradication
[5]
  outcome against Raoultella ornithinolytica: successfully eradicated
[6]; [9]
  Total-drug AUC:MIC ratio target: 41.6
[6]; 1 log10 CFU reduction from baseline
  Median total-drug AUC:MIC ratio target: 41.6
[6]; Net bacterial stasis
  Total-drug AUC:MIC ratio target: 19.1
  Median total-drug AUC:MIC ratio target: 19.1
[7]
  MIC50: 4 µg/mL (≈ 29 µM)
  MIC90: 16 µg/mL (≈ 116 µM)
[8]
  effective (patients with AP): 44%

From patent US12702676B2, “Fosfomycin dosing regimens” (priority 2017, dated 2026)
